From patent publication US20220143148A1, “COMPOSITIONS AND METHODS FOR MODULATING CGRP SIGNALING TO REGULATE INTESTINAL INNATE LYMPHOID CELLS” (The Broad Institute, Inc., priority 2019, published 2022)

How the values were obtained:
KLRG1+ ILC2s = assay: In vitro proliferation assay (CellTrace Violet, flow cytometry); assay type: cell-based, mouse; settings: IL-25 plus α-CGRP, 60 hours; P=0.01, t-test
Procedure: Flow cytometry and cell sorting. Cells were washed and suspended in MACS buffer (pH 7.4; PBS plus 2% FCS and 2 mM EDTA). Nonspecific antibody binding was blocked with CD16/CD32 (2.4G2) antibody for 15 min on ice. Cells were then stained with antibody cocktails for 30 min at 4° C. Lineage-positive cells were excluded for analyzing ILCs by staining for CD3ε (145-2C11), CD5 (53-7.3), CD19 (6D5), CD11b (M1/70), CD8 (53-6.7), CD11c (N418), Gr-1 (RB6-8C5), TCRγδ (eBioGL3 (GL-3, GL3)) and TCRβ (H57-597). To analyze mast cells, lineage-positive cells were excluded by staining for CD3ε, CD5, CD19, CD11c and SiglecF (E50-2440). For surface staining, antibodies for KLRG1 (2F1), CD45 (30-F11), CD127 (A7R34), CCR6 (29-2L17), NKp46 (29A1.4), CD90.2 (53-2.1), FcεRI (Mar-1), IgD (11-26c.2a) and ST2 (DJ8) were used. For intracellular staining, cells were fixed and permeabilized using the Foxp3 transcription factor staining buffer set, followed by staining with anti-GATA-3 (TWAJ) or anti-RORγt (B2D) antibodies. Dead cells were excluded with 7-AAD or Fixable Viability Dye eFluor 780. Flow cytometry was performed on Cytoflex (Beckman Coulter) and analyzed with FlowJo software. Sorting was performed with the SH800S Cell Sorter (Sony Biotechnology).
ILC2 culture. […]

intestinal ILC2s = assay: OVA food allergy model with intragastric α-CGRP; assay type: in vivo, mouse; settings: α-CGRP intragastrically together with OVA, pre-sensitized mice; P=0.02, P=0.009, t-test
From the text: Intraperitoneal administration of α-CGRP impaired IL-25-induced expansion of KLRG1^+ ILC2s (FIGS. 5B and 12A), consistent with the in vitro results. Recent work has shown that intestinal KLRG1^+ ILC2s can migrate to mesenteric lymph nodes (mLNs) and other tissues during inflammation via sphingosine 1-phosphate (S1P)-mediated chemotaxis (Huang et al., 2018). To determine whether α-CGRP primarily impacts intestinal or mLN ILC2s, Applicants relied on the fact that intestinal GATA3^+ ILC2s are generally phenotypically KLRG1^+ST2^− (data not shown), whereas mLN ILC2s are mainly ST2^+ at steady state (FIG. 5C). IL-25 administration increased the frequency of both KLRG1^+ST2^− inflammatory ILC2s and ST2^+ ILC2s in mLNs (FIGS. 5C-E and 12B). […] Thus, α-CGRP preferentially regulates the response of intestinal KLRG1^+ST2^− ILC2s. […] Taken together, α-CGRP antagonized expansion of intestinal KLRG1^+ ILC2s in two different type 2 inflammatory models.
To induce allergic reaction to OVA, 6 to 7 weeks old mice were sensitized twice, two weeks apart, with 50 μg of OVA plus 1 mg of aluminum potassium sulfate adjuvant via intraperitoneal injection. Two weeks later, mice were orally administered with 50 mg of OVA on every other day for a total of five times. […]
Flow cytometry and cell sorting. […] Flow cytometry was performed on Cytoflex (Beckman Coulter) and analyzed with FlowJo software. […]

intestinal KLRG1+ ILC2s = assay: Bulk ATAC-seq of intestinal KLRG1+ ILC2s stimulated in vitro; assay type: cell-based, mouse; settings: α-CGRP stimulation alone
Procedure: ILC2 culture. Sort-purified intestinal KLRG1^+ ILC2s were incubated in RPMI supplemented with 10% FCS, 10 mM Hepes, 1 mM sodium pyruvate, 10% FBS, 80 μm 2-mercaptoethanol, 2 mM glutamine, 100 U/ml penicillin, […] streptomycin, 100 ng/ml IL-2 and 100 ng/ml IL-7 in 96-well round bottom plate at 37° C. and 5% CO2. If indicated, the culture was supplemented with 100 ng/ml IL-25. For the in vitro proliferation assay, cells from different mice were pooled and labeled with CellTrace Violet, and then cultured at 1,000-1,500 cells per well with 10 μg/ml α-CGRP for 60 hours. When indicated, 10 μM forskolin or 1 μM SQ 22, 536 in DMSO was supplied and cells were cultured for 40 hours. […]
Bulk ATAC-seq. […] The library was amplified for 11 cycles, purified with Zymo DNA clean (Zymo Research), and sequenced on an Illumina Next-seq platform using 75 cycle Nextseq 500 high output V2 kit (Read 1: 38 cycles, Index 1: 8 cycles, Index 2: 8 cycles, Read 2: 38 cycles).
The reads were trimmed and aligned to the mouse reference genome (mm9) with Bowtie2 aligner (Langmead and Salzberg, 2012) using the option-X2000. Then, Applicants discarded reads with alignment quality<Q30, improperly paired, mapped to the unmapped contigs, chrY, and mitochondria. […] Peak summits were extended by ±250 bp, and fragment counts in peaks were calculated using chromVAR (Schep et al., 2017) (version: 1.1.1). […]

lung ILC2s = settings: co-stimulated with IL-33; cited from earlier work

## α-CGRP: neuropeptide alpha-calcitonin gene-related peptide, encoded by exon 5 of Calca; administered as peptide
KLRG1+ ILC2s
  IL-25-induced cell division: significantly suppressed
Intestinal ILC2s
  expansion of intestinal ILC2s in a food allergy model: significantly suppressed
Intestinal KLRG1+ ILC2s
  regions of increased chromatin accessibility: enriched for gene loci involved in the adenylate cyclase pathway
Lung ILC2s
  IL-5 expression in lung ILC2s: increases
